Test results as given in ChEMBL document CHEMBL4765476, “MCC950, a NLRP3 inhibitor, ameliorates lipopolysaccharide-induced lung inflammation in mice” (Bioorg Med Chem, 2021).
Active and inactive are the calls of the source. The calls are words filed in the database; no cut-off is given here.

What was measured:
[1] = organism: Mus musculus; conditions: ICR, dose 10-50 mg/kg, time 42.0 hrs
[2] = organism: Mus musculus; conditions: ICR, dose 10-50 mg/kg, time 42.0 hrs; remark: listed apart in the source
[3] = organism: Mus musculus; conditions: ICR, dose 10-50 mg/kg, time 42.0 hrs; remark: listed apart in the source
[4] = organism: Mus musculus; conditions: ICR, dose 10-50 mg/kg, time 42.0 hrs; remark: listed apart in the source
[5] = tested on: Mus musculus; test: Antiinflammatory activity in ICR mouse assessed as reduction in LPS-induced macrophages level in BALF at 10 mg/kg, INH administered 18 hrs before LPS-stimulation and measured after 24 hrs by FACS analysis relative to control; assay type: functional; conditions: time 42 hrs
[6] = tested on: Mus musculus; test: Antiinflammatory activity in ICR mouse assessed as reduction in LPS-induced lymphocyte level in BALF at 50 mg/kg, INH administered 18 hrs before LPS-stimulation and measured after 24 hrs by FACS analysis relative to control; assay type: functional; conditions: time 42 hrs
[7] = organism: Mus musculus; conditions: ICR, dose 10-50 mg/kg, time 42.0 hrs; remark: listed apart in the source
[8] = tested on: Mus musculus; test: Antiinflammatory activity in ICR mouse assessed as reduction in LPS-induced neutrophils in BALF at 10 mg/kg, INH administered 18 hrs before LPS-stimulation and measured after 24 hrs by FACS analysis relative to control; assay type: functional; conditions: time 42 hrs
[9] = tested on: Mus musculus; test: Antiinflammatory activity in ICR mouse assessed as reduction in LPS-induced neutrophils in BALF at 50 mg/kg, ip administered 18 hrs before LPS-stimulation and measured after 24 hrs by FACS analysis relative to control; assay type: functional; conditions: time 42 hrs
[10] = organism: Mus musculus; conditions: ICR, dose 10-50 mg/kg, time 42.0 hrs; remark: listed apart in the source
[11] = organism: Mus musculus; conditions: ICR, dose 10-50 mg/kg, time 42.0 hrs; remark: listed apart in the source
[12] = organism: Mus musculus; conditions: ICR, dose 10-50 mg/kg, time 42.0 hrs; remark: listed apart in the source
[13] = organism: Mus musculus; conditions: ICR, dose 10-50 mg/kg, time 42.0 hrs; remark: listed apart in the source
[14] = tested on: Mus musculus; test: Antiinflammatory activity in ICR mouse assessed as reduction in LPS-induced macrophages level in BALF at 50 mg/kg, INH administered 18 hrs before LPS-stimulation and measured after 24 hrs by FACS analysis relative to control; assay type: functional; conditions: time 42 hrs
[15] = tested on: Mus musculus; test: Antiinflammatory activity in ICR mouse assessed as reduction in LPS-induced neutrophils in BALF at 10 mg/kg, ip administered 18 hrs before LPS-stimulation and measured after 24 hrs by FACS analysis relative to control; assay type: functional; conditions: time 42 hrs
[16] = tested on: Mus musculus; test: Antiinflammatory activity in ICR mouse assessed as reduction in LPS-induced macrophage level in BALF at 10 mg/kg, ip administered 18 hrs before LPS-stimulation and measured after 24 hrs by FACS analysis relative to control; assay type: functional; conditions: time 42 hrs
[17] = tested on: Mus musculus; test: Antiinflammatory activity in ICR mouse assessed as reduction in LPS-induced neutrophil infiltration in lungs at 10 mg/kg, ip administered 18 hrs before LPS-stimulation and measured after 24 hrs by H and E staining based imaging analysis relative to control; assay type: functional; conditions: time 42 hrs
[18] = organism: Mus musculus; conditions: ICR, dose 10-50 mg/kg, time 42.0 hrs; remark: listed apart in the source
[19] = organism: Mus musculus; conditions: ICR, dose 10-50 mg/kg, time 42.0 hrs; remark: listed apart in the source
[20] = tested on: Mus musculus; test: Antiinflammatory activity in ICR mouse assessed as reduction in LPS-induced lymphocyte level in BALF at 50 mg/kg, ip administered 18 hrs before LPS-stimulation and measured after 24 hrs by FACS analysis relative to control; assay type: functional; conditions: time 42 hrs
[21] = tested on: Mus musculus; test: Antiinflammatory activity in ICR mouse assessed as reduction in LPS-induced neutrophil infiltration in lungs at 50 mg/kg, ip administered 18 hrs before LPS-stimulation and measured after 24 hrs by H and E staining based imaging analysis relative to control; assay type: functional; conditions: time 42 hrs
[22] = tested on: Mus musculus; test: Antiinflammatory activity in ICR mouse assessed as reduction in LPS-induced lymphocyte level in BALF at 10 mg/kg, INH administered 18 hrs before LPS-stimulation and measured after 24 hrs by FACS analysis relative to control; assay type: functional; conditions: time 42 hrs
[23] = tested on: Mus musculus; test: Antiinflammatory activity in ICR mouse assessed as reduction in LPS-induced macrophage level in BALF at 50 mg/kg, ip administered 18 hrs before LPS-stimulation and measured after 24 hrs by FACS analysis relative to control; assay type: functional; conditions: time 42 hrs
[24] = organism: Mus musculus; conditions: ICR, dose 10-50 mg/kg, time 42.0 hrs; remark: listed apart in the source
[25] = organism: Mus musculus; conditions: ICR, dose 10-50 mg/kg, time 42.0 hrs; remark: listed apart in the source
[26] = tested on: Mus musculus; test: Antiinflammatory activity in ICR mouse assessed as reduction in LPS-induced neutrophil infiltration in lungs at 50 mg/kg, INH administered 18 hrs before LPS-stimulation and measured after 24 hrs by H and E staining based imaging analysis relative to control; assay type: functional; conditions: time 42 hrs
[27] = organism: Mus musculus; conditions: ICR, dose 50.0 mg/kg, time 42.0 hrs
[28] = organism: Mus musculus; conditions: ICR, dose 10.0 mg/kg, time 42.0 hrs
[29] = tested on: Mus musculus; test: Antiinflammatory activity in ICR mouse assessed as reduction in LPS-induced lymphocyte level in BALF at 10 mg/kg, ip administered 18 hrs before LPS-stimulation and measured after 24 hrs by FACS analysis relative to control; assay type: functional; conditions: time 42 hrs
[30] = organism: Mus musculus; conditions: ICR, dose 10-50 mg/kg, time 42.0 hrs; remark: listed apart in the source
[31] = tested on: Mus musculus; test: Antiinflammatory activity in ICR mouse assessed as reduction in LPS-induced neutrophil infiltration in lungs at 10 mg/kg, INH administered 18 hrs before LPS-stimulation and measured after 24 hrs by H and E staining based imaging analysis relative to control; assay type: functional; conditions: time 42 hrs
[32] = organism: Mus musculus; conditions: ICR, dose 10-50 mg/kg, time 42.0 hrs; remark: listed apart in the source
[33] = tested on: Mus musculus; test: Antiinflammatory activity in ICR mouse assessed as reduction in LPS-induced neutrophils in BALF at 50 mg/kg, INH administered 18 hrs before LPS-stimulation and measured after 24 hrs by FACS analysis relative to control; assay type: functional; conditions: time 42 hrs

## CC(C)(O)c1coc(S(=O)(=O)NC(=O)Nc2c3c(cc4c2CCC4)CCC3)c1
[1]
  inhibition: Active
[2]
  inhibition: Active
[3]
  inhibition: Active
[4]
  inhibition: Active
[5]
  inhibition in vivo at 10 mg/kg: 36.6%
[6]
  inhibition in vivo at 50 mg/kg: 34.9%
[7]
  inhibition: Active
[8]
  inhibition in vivo at 10 mg/kg: 46.5%
[9]
  inhibition in vivo at 50 mg/kg: 67.8%
[10]
  inhibition: Active
[11]
  inhibition: Active
[12]
  inhibition: Active
[13]
  inhibition: Active
[14]
  inhibition in vivo at 50 mg/kg: 43.8%
[15]
  inhibition in vivo at 10 mg/kg: 44.2%
[16]
  inhibition in vivo at 10 mg/kg: 53.2%
[17]
  inhibition in vivo at 10 mg/kg: 37.1%
[18]
  inhibition: Active
[19]
  inhibition: Active
[20]
  inhibition in vivo at 50 mg/kg: 49.8%
[21]
  inhibition in vivo at 50 mg/kg: 51.4%
[22]
  inhibition in vivo at 10 mg/kg: 28.3%
[23]
  inhibition in vivo at 50 mg/kg: 76.7%
[24]
  inhibition: Active
[25]
  inhibition: Active
[26]
  inhibition in vivo at 50 mg/kg: 52.9%
[27]
  inhibition: Active
[28]
  inhibition: inactive
[29]
  inhibition in vivo at 10 mg/kg: 40.3%
[30]
  inhibition: Active
[31]
  inhibition in vivo at 10 mg/kg: 35.3%
[32]
  inhibition: Active
[33]
  inhibition in vivo at 50 mg/kg: 71.7%
